Results taken from US10905692B2, “Combination therapy for treating malignancies” (Agios Pharmaceuticals, Inc., priority 2015, dated 2021).

Assay: blood bilirubin in subjects with a UGT1A1 mutation receiving COMPOUND 1
Format: in vivo, human
Text: All toxicity ≥Grade 3 not due to underlying AML or complications of the disease or myelosuppressive treatment, with the exception of ≥Grade 3 blood bilirubin increases in subjects with a UGT1A1 mutation receiving COMPOUND 1.

Compound: CC(C)(O)CNc1nc(Nc2ccnc(C(F)(F)F)c2)nc(-c2cccc(C(F)(F)F)n2)n1 [COMPOUND 1, 2-methyl-1-[(4-[6-(trifluoromethyl)pyridin-2-yl]-6-{[2-(trifluoromethyl)pyridin-4-yl]amino}-1,3,5-triazin-2-yl)amino]propan-2-ol]
- blood bilirubin increases: isolated blood bilirubin increases have been seen
